Experimental data published in US11166942B2 (PRAXIS BIOTECH LLC, priority 2018, dated 2021).
Like-named read-outs stand apart in the source and are kept apart here.

Assays:
ATF4 = ATF4 expression inhibition assay (ATF4 5'UTR luciferase reporter, Tg-stressed HEK293T cells); type: cell-based, human; details: for inhibition at 0.1 µM: read-out: % ATF4 inhibition at 100 nM; for IC50: read-out: ATF4 inhbition IC50; for inhibition at 1 µM: read-out: % ATF4 inhibition at 1 μM
Description: The ATF4 reporter was prepared by fusing the human full length 5′UTR of ATF4 (NCBI Accession No. BC022088.2) upstream of the firefly luciferase coding sequence lacking the initiator methionine. The fused sequence was cloned into pLenti-EF1a-C-Myc-DDK-IRES-Puro cloning vector (Origen #PS100085) using standard methods. Virus production was carried out by using Lenti-X™ Packaging Single Shots Protocol (Clonetech #631276). Viral particles were used to transduce HEK293T cells (ATCC #CRL-3216, ATCC Manassas, Va.), which were subsequently selected with puromycin to generate stable cell line. Cells were maintained at 37° C. and 5% CO2 in DMEM-F12 (Hyclone #SH30023.02) supplemented with 10% heat-inactivated fetal bovine serum (Gibco #16000-044), 2 mM L-glutamine (Gibco #25030-081), 100 U/ml penicillin, and 100 μg/ml streptomycin (Gibco #15140-122).
HEK293T cells carrying the ATF4 luciferase reporter were plated on 96-well plates (Nunc) at 10,000 cells per well. Cells were treated two days after seeding with 100 nM thapsigargin (Tg) (Sigma-Aldrich #T9033) in the presence of 100 nM or 1 μM. For the assessment of the half-maximal inhibitory concentration (IC50) for selected compounds, dose-response assays were performed. Compounds were serially diluted using DMSO ranging from 0.1 nM to 1 μM. Cells without treatment or cells treated with Tg alone were used as controls. Assay plates containing cells were incubated for 3 hours at 37° C.
Luciferase reactions were performed using Luciferase Assay System (Promega #E1501) as specified by the manufacturer. Luminescence was read with an integration time of 1 s and a gain of 110 using a Cytation-5 multi-mode microplate reader (BioTek). Relative luminescence units were normalized to Tg treatment (0% inhibition) and untreated cells (100% inhibition) and the percentage of ATF4 inhibition was calculated.
Percentages of ATF4 inhibition after induction with Tg in the presence of 100 nM or 1 μM of certain test compounds are shown in Table 2. Also shown in Table 2 is the calculated IC50 for certain test compounds. […] Accordingly, inhibition of ATF4 expression as a result of the test compound indicates suppression of the ISR pathway.

[1] = system: Chinese hamster ovary (CHO) cells; test: Protein translation assay (puromycin labelling, CHO cells); type: cell-based; details: media alone = 100%; for activity at 1 µM: Cricetulus griseus, CHO; for % Recovery of protein expression (100 nM test compound): 100 nM compound
Description: Chinese hamster ovary (CHO) cells were maintained at 37° C. and 5% CO2 in Dulbecco's Modified Eagle's Media (DMEM) supplemented with 10% fetal bovine serum, 2 mM L-glutamine, 100 U/ml penicillin, and 100 μg/ml streptomycin. After reaching 80% of confluence, cells were detached and seeded on 6 well plates in complete media, allowed to recover overnight and treated for 2 hours with 1 μM of the test compound (to assess protein synthesis levels in unstressed condition), or for 1 hour with 100 nM or 1 μM of the test compound and then co-treated with 300 nM Tg and 100 nM or 1 μM of the test compound (to assess the recovery of protein synthesis in a stressed condition). Cells treated with Tg alone were used as controls.
After the 2 hours treatments, media were replaced by adding 10 μg/ml puromycin (Sigma Aldrich #P8833) in complete media for 30 min. Media were removed and cells were lysed with SDS-PAGE lysis buffer. Lysates were transferred to 1.5 ml tubes and sonicated for 3 min and total protein amount were quantified using BCA Protein Assay Kit (Pierce). Equal amount of protein (30 μg) was loaded on SDS-PAGE gels. Proteins were transferred onto 0.2 μm PVDF membranes (BioRad) and probed with primary antibodies diluted in Tris-buffered saline supplemented with 0.1% Tween 20 (Merck #S6996184 505) and 3% bovine serum albumin (Rockland #BSA-50).
Puromycin (12D10) (Merck #MABE343) and β-actin (Sigma Aldrich #A5441) antibodies were used as primary antibody. A HRP-conjugated secondary antibody (Rockland) was employed to detect immune-reactive bands using enhanced chemiluminescence (ECL Western Blotting Substrate, Pierce). Quantification of protein bands was done by densitometry using ImageJ software.
Percent increase of protein synthesis in unstressed cells (without Tg treatment) in the presence of media alone or certain test compounds is shown in Table 3 The percentage levels were normalized to the media alone condition, which correspond to 100% protein synthesis.
Percent recovery of protein synthesis in stressed cells (with Tg treatment) due to the test compounds at 100 nM or 1 μM is also shown in Table 3. The levels were normalized to the media alone and to Tg alone conditions, which correspond to 100% and 0% respectively.

[2] = Homo sapiens, HEK-293T, 3 h, 100 nM test compound, 100 nM thapsigargin, 3 hours, HEK293T ATF4 luciferase reporter
[3] = Homo sapiens, HEK-293T, 3 h, 100 nM thapsigargin, 3 hours, HEK293T ATF4 luciferase reporter
[4] = Homo sapiens, HEK-293T, 3 h, 1 μM test compound, 100 nM thapsigargin, 3 hours, HEK293T ATF4 luciferase reporter
[5] = 2 h, unstressed CHO cells, 1 μM, 2 hours, read-out: % Protein synthesis in unstressed cells (1 μM test compound)
[6] = CHO cells stressed with 300 nM Tg, 1 μM compound, Tg alone = 0%, read-out: % Recovery of protein expression (1 μM test compound)
[7] = CHO cells stressed with 300 nM Tg, Tg alone = 0%

Row | IC50 (ATF4; [3]) [nM] | SMILES | inhibition at 0.1 µM (ATF4; [2]) [%] | inhibition at 1 µM (ATF4; [4]) [%] | other results
1 | > 1000 | O=C(COc1ccc(Cl)c(F)c1)NC1CCN(NCC(O)COc2ccc(Cl)c(F)c2)CC1 (centres unmarked) [Compound 7, 2-(4-chloro-3-fluorophenoxy)-N-(1-((3-(4-chloro-3-fluorophenoxy)-2-hydroxypropyl)amino)piperidin-4-yl)acetamide] | 16.1 | 13.9 | 
2 | < 100 | O=C(COc1ccc(Cl)c(F)c1)NC1CCN(NC(=O)c2nc3cc(Cl)ccc3s2)CC1 [Compound 9, 5-chloro-N-(4-(2-(4-chloro-3-fluorophenoxy)acetamido)piperidin-1-yl)benzo[d]thiazole-2-carboxamide] | 77.1 | 86.8 | 
3 | < 100 | O=C(COc1ccc(Cl)c(F)c1)NN1CCC(NC(=O)c2nc3cc(Cl)ccc3s2)CC1 [Compound 10, 5-chloro-N-(1-(2-(4-chloro-3-fluorophenoxy)acetamido)piperidin-4-yl)benzo[d]thiazole-2-carboxamide] | 68.2 | 87.2 | 
4 | < 100 | O=C(COc1ccc(Cl)c(F)c1)NC1CCN(NC(=O)C2Cc3cc(Cl)ccc3O2)CC1 (centres unmarked) [Compound 11, 5-chloro-N-(4-(2-(4-chloro-3-fluorophenoxy)acetamido)piperidin-1-yl)-2,3-dihydrobenzofuran-2-carboxamide] | 67.8 | 90.5 | 
5 | < 100 | O=C(COc1ccc(Cl)c(F)c1)NN1CCC(NC(=O)C2Cc3cc(Cl)ccc3O2)CC1 (centres unmarked) [Compound 12, 5-chloro-N-(1-(2-(4-chloro-3-fluorophenoxy)acetamido)piperidin-4-yl)-2,3-dihydrobenzofuran-2-carboxamide] | 69.4 | 88.5 | 
6 |  | O=C(NN1CCN(CC(O)COc2ccc(Cl)c(F)c2)CC1)C1Cc2cc(Cl)ccc2O1 (centres unmarked) [Compound 13, 5-chloro-N-(4-(3-(4-chloro-3-fluorophenoxy)-2-hydroxypropyl)piperazin-1-yl)-2,3-dihydrobenzofuran-2-carboxamide] |  |  | % ATF4 inhibition at 100 nM (ATF4; 100 nM test compound, 100 nM thapsigargin, 3 hours, HEK293T ATF4 luciferase reporter): 60.7%; IC50 (ATF4; 100 nM thapsigargin, 3 hours, HEK293T ATF4 luciferase reporter): < 100 nM; % ATF4 inhibition at 1 μM (ATF4; 1 μM test compound, 100 nM thapsigargin, 3 hours, HEK293T ATF4 luciferase reporter): 86.7%
7 | > 1000 | O=C(NC1CCN(NCC(O)COc2ccc(Cl)c(F)c2)CC1)c1ccc2cc(Cl)ccc2n1 (centres unmarked) [Compound 25, 6-chloro-N-(1-((3-(4-chloro-3-fluorophenoxy)-2-hydroxypropyl)amino)piperidin-4-yl)quinoline-2-carboxamide] | 8.1 | 8.5 | 
8 |  | O=C(NC1CCN(NCC(O)COc2ccc(Cl)c(F)c2)CC1)c1cc2cc(Cl)ccc2o1 (centres unmarked) [Compound 26, 5-chloro-N-(1-((3-(4-chloro-3-fluorophenoxy)-2-hydroxypropyl)amino)piperidin-4-yl)benzofuran-2-carboxamide] | 37.5 | 49.4 | 
9 | < 100 | O=C(COc1ccc(C(F)(F)F)cc1)NC1CCN(NC(=O)COc2ccc(C(F)(F)F)cc2)CC1 [Compound 35, N,N′-(piperidine-1,4-diyl)bis(2-(4-(trifluoromethyl)phenoxy)acetamide)] | 92.1 | 91.6 | 
10 |  | O=C(COc1ccc(Cl)c([N+](=O)[O-])c1)NC1CCN(NC(=O)COc2ccc(Cl)c(F)c2)CC1 [Compound 39, 2-(4-chloro-3-fluorophenoxy)-N-(4-(2-(4-chloro-3-nitrophenoxy)acetamido)piperidin-1-yl)acetamide] |  |  | inhibition at 0.1 µM (ATF4; Homo sapiens, HEK-293T, 3 h): 91%; inhibition at 1 µM (ATF4; Homo sapiens, HEK-293T, 3 h): 91.5%; IC50 (ATF4; Homo sapiens, HEK-293T, 3 h): < 100 nM
11 | > 1000 | O=C(NC1CCN(NCC(O)COc2ccc(Cl)c(F)c2)CC1)C1Cc2cc(Cl)ccc2O1 (centres unmarked) [Compound 70, 5-chloro-N-(1-((3-(4-chloro-3-fluorophenoxy)-2-hydroxypropyl)amino)piperidin-4-yl)-2,3-dihydrobenzofuran-2-carboxamide] | 0.4 | 21.4 | 
12 |  | O=C(NN1CCN(CC(O)COc2ccc(C(F)(F)F)cc2)CC1)c1ccc2cc(Cl)ccc2n1 (centres unmarked) [Compound 71, 6-chloro-N-(4-(2-hydroxy-3-(4-(trifluoromethyl)phenoxy)propyl)piperazin-1-yl)quinoline-2-carboxamide] |  |  | inhibition at 0.1 µM (ATF4; Homo sapiens, HEK-293T, 3 h): 83.4%; inhibition at 1 µM (ATF4; Homo sapiens, HEK-293T, 3 h): 89.9%; IC50 (ATF4; Homo sapiens, HEK-293T, 3 h): < 100 nM

Row | SMILES | IC50 (ATF4; [3]) [nM] | inhibition at 0.1 µM (ATF4; [2]) [%] | inhibition at 1 µM (ATF4; [4]) [%] | other results
13 | O=C(COc1ccc(Cl)c(F)c1)NN1CCN(C[C@@H](O)COc2ccc(Cl)c(F)c2)CC1 (single isomer, unassigned) [Compound 50] | 1.93 | 97.2 | 100 | activity at 1 µM [1, 5]: 96.8%; activity at 1 µM [1, 6]: 7.4%
14 | O=C(COc1ccc(Cl)c(F)c1)NN1CCN(C[C@H](O)COc2ccc(Cl)c(F)c2)CC1 (single isomer, unassigned) [Compound 51] | 19.8 | 79.3 | 100 | activity at 1 µM [1, 5]: 110%; activity at 1 µM [1, 6]: 22.1%
15 | O=C(COc1ccc(Cl)c(F)c1)NN1CCC(NC[C@@H](O)COc2ccc(Cl)c(F)c2)CC1 (single isomer, unassigned) [Compound 52] | 26.9 | 75.3 | 81.2 | activity at 1 µM [1, 5]: 113%; activity at 1 µM [1, 6]: 75.8%
16 | O=C(COc1ccc(Cl)c(F)c1)NC1CCN(NC(=O)c2ccc3cc(Cl)ccc3n2)CC1 [Compound 1, 6-chloro-N-(4-(2-(4-chloro-3-fluorophenoxy)acetamido)piperidin-1-yl)quinoline-2-carboxamide] | 3.6 | 93.7 | 97.9 | % Recovery of protein expression (100 nM test compound) [1, 7]: 88.6%; activity at 1 µM [1, 5]: 112%; activity at 1 µM [1, 6]: 218%
17 | O=C(COc1ccc(Cl)c(F)c1)NC1CCN(NC(=O)c2cc3cc(Cl)ccc3o2)CC1 [Compound 2, 5-chloro-N-(4-(2-(4-chloro-3-fluorophenoxy)acetamido)piperidin-1-yl)benzofuran-2-carboxamide] | 18.4 | 87.1 | 97.6 | % Recovery of protein expression (100 nM test compound) [1, 7]: 40.2%; activity at 1 µM [1, 5]: 87.5%; activity at 1 µM [1, 6]: 123%
